The structures appear in SMILES notation.

One experiment concerns IL-6. The experiment is described as follows: Western blot of IL-6 in prefrontal cortex brain tissue, acute hypobaric hypoxia model. It counts as in vivo, cynomolgus monkeys. The following applies: FIGS. 3A and 3B. An excerpt: FIG. 3. […] A. Protein expression of inflammatory factors IL-6, IL-1β and TNF-α in the brain tissue of the prefrontal cortex of cynomolgus monkeys; B. Statistics of protein relative gray scan values. NN: Normobaric Normoxia group (N=3); HH: Hypobaric Hypoxia group (N=3); HH+Triol: Hypobaric Hypoxia with Triol administration group (N=3); HH+PROG: Hypobaric Hypoxia with control drug administration group (N=3). The gray value was obtained by scanning with Image Lab software, and the relative value was obtained after normalizing with α-Tubulin. One-way ANOVA analysis and Dunnutt's t test were used to perform statistical tests, and in the latter each group was compared with the HH group, *, p<0.05; **, p<0.01.
1) Preparation of protein samples (see the instructions of M-PER protein lysate): After the cells had been processed for the specified time, the medium was aspirated and then washed with 4° C. pre-chilled PBS (0.01M pH7.2˜7.3) for 3 times. […] 2) BCA protein quantification (see the instructions of BCA protein quantification kit): corresponding components were added to a 96-well detection plate by the ratio of quantification reagent A solution:B solution:ddH2O:protein=100:2:7.5:5, and albumin standards diluted in gradient concentration were added to draw a standard curve. […] After the reaction, the absorbance of each well at a wavelength of 562 nm was detected using a microplate reader. […]

A further experiment has as its system Iba1. Kind of experiment: Immunofluorescence of Iba1 in prefrontal cortex brain tissue, acute hypobaric hypoxia model. It counts as in vivo, cynomolgus monkeys. As to conditions: FIG. 5. An excerpt:
FIG. 5. […] A. Immunofluorescence imaging of CD163 and Iba-1 in the brain tissue of cynomolgus monkeys. B. Statistics of relative fluorescence intensity of CD163 and Iba-1. C. Correlation analysis of relative fluorescence intensity of CD163 and Iba-1. NN: Normobaric Normoxia group; HH: Hypobaric Hypoxia group; HH+Triol: Hypobaric Hypoxia with Triol administration group; HH+PROG: Hypobaric Hypoxia with progesterone administration group. One-way ANOVA analysis and Dunnutt's t test were used to perform statistical tests, and in the latter each group was compared with the HH group, ***, p<0.001.
The thickness of paraffin sections was 5 μm. For fresh paraffin sections, the sections were dried at 37° C. overnight and then dried at 55° C. for 30 minutes. The sections were quickly placed in xylene for dewaxing. After fully dewaxing with xylene for 10 min for 3 times, absolute ethanol-95% ethanol-90% ethanol-80% ethanol-70% ethanol-50% ethanol-ddH2O were successively used for gradient rehydration. After rehydration, the sections were placed in EDTA antigen repair solution for microwave high temperature repair. After the repair was completed, it was allowed naturally cool down to room temperature. […] NIS-Elements Analysis software was used to analyze the fluorescence intensity of confocal images, which was then normalized with the fluorescence intensity per unit area according to the built-in scale. […]

With `C[C@@]12CCCC1C1C[C@@H](O)[C@@]3(O)C[C@@H](O)CC[C@]3(C)C1CC2` (stereo partly drawn) [Triol, 5α-androst-3β,5,6β-triol], the “expression level of IL-6” value in the experiment with IL-6 is on record as “significantly reduced”. For the same compound, the Iba1 expression result in the experiment with Iba1 is “down-regulation”.

Source of the values: patent US11911396B2, “Use of compound in preparation of drug for treating cerebral small vessel disease” (GUANGZHOU CELLPROTEK PHARMACEUTICAL CO., LTD, priority 2017, dated 2024).
